According to US8197872B2, “Human milk oligosaccharides to promote growth of beneficial gut bacteria” (The Regents of the University of California, priority 2007, dated 2012):

Legend:
[1] = system: sialidase (EC 3.2.1.18) of B. breve ATCC 15700; experiment: Glycosyl hydrolase assay, sialidase in cell-free extract; assay type: cell-based; settings: cells grown with 1% (w/v) of the substance as sole carbon source
Protocol: (§1) Assayed cells were incubated anaerobically at 37° C. on semi-synthetic MRS medium (Barrangou et al., Proceedings of the National Academy of Sciences of the United States of America (2003) 100: 8957-8962), with 1% (w/v) sterile filtered lactose or HMO as the sole carbon source. Early stationary phase cells were harvested and 200 mg of 0.1 mm diameter glass beads (BioSpec Products, Bartlesville, Okla.) were added to the suspensions which were subjected to two cycles of 45 s at power 6.0 m s^−1 on a FastPrep FP120 cell disruptor (Qbiogene, Morgan Irvine, Calif.). The beads and cell debris were removed by centrifugation. Cell-free extracts were collected and kept temporarily on ice until the start of the enzyme assays. Protein concentrations were determined according to the Bradford method using bovine serum albumin as the standard (Bradford, M. M., Analytical Biochemistry (1976) 72, (1-2), 248-254). Activity of α-L-fucosidase (EC 3.2.1.51) and sialidase (EC 3.2.1.18) were assayed with the fluorogenic substrates, 4-methylumbelliferyl α-L-fucopyranoside and 2′-(4-methylumbelliferyl) α-D-N-acetylneuraminic acid respectively. Fucosidase activity was assayed with a fluorogenic substrate concentration of 1 mM in 0.2 M phosphate-citrate buffer (pH 5.2), while the sialidase assay employed 0.5 mM of substrate mixed in equal volume with 50 μl 0.25 M sodium acetate-acetic acid buffer (pH 4.3). The reaction mixture containing 100 μl of cell-free extract and 100 μL substrate solution were incubated for 1 hr at 37° C. with the reaction stopped with 1.3 mL of 0.17 M glycine-carbonate buffer, pH 9.8. The fluorescence of enzymatically liberated 4-methylumbelliferone was determined in a Bio-Rad VersaFluor fluorometer (Eureka, Calif.) by excitation at 360 nm and emission measured at 460 nm. Serially diluted 4-methylumbelliferone was used to calibrate relative fluorescence units with substrate concentration. The specific activity of the glycosyl hydrolase was expressed as nanomoles of hydrolyzed substrate per milligram of protein per hour. Assays were performed in duplicates and the standard error was reported.

[2] = system: sialidase (EC 3.2.1.18) of B. infantis ATCC 15697; experiment: as above; assay type: cell-based
Protocol: as §1

[3] = system: sialidase (EC 3.2.1.18) of B. longum DJO10A; experiment: as above; assay type: cell-based; settings: cells grown with 1% (w/v) of the substance as sole carbon source
Protocol: as §1

B. breve ATCC 15700 = experiment: FTICR-MS HMO consumption glycoprofiling of bacterial fermentation; assay type: cell-based, Bifidobacterium breve; settings: 45 hrs
Excerpt: (§2) Bifidobacterium longum bv. infantis ATCC 15697 and B. breve ATCC 15700 were obtained from the American Type Culture Collection (Manassas, Va.), B. longum bv. longum DJO10A was from D. O'Sullivan, University of Minnesota. Cultures were initially propagated in deMan, Rogosa, Sharpe broth (Becton Dickinson, Sparks, Md.) then grown twice on a semi-synthetic MRS medium, devoid of a carbohydrate source (Barrangou et al., Proceedings of the National Academy of Sciences of the United States of America (2003) 100, (15), 8957-8962). This medium was supplemented with 2.0% (w/v) sterile filtered (Millex-GV, 0.22 μm, Millipore, Billerica, Mass.) HMO as the only carbohydrate source. […] Cell growth was measured by assessing optical density at 600 nm with a ND-1000 Spectrophotometer (NanoDrop Technologies, Wilmington, Del.). […]
(§3) All mass spectra were acquired on a HiResESI QFT-hybrid Fourier transform ion cyclotron resonance mass spectrometer with a 9.4 Tesla shielded superconducting magnet (IonSpec Corp., Irvine, Calif.). […] Ion excitation was performed by arbitrary waveform with amplitude of 125.0 V (base-to-peak) and detected by direct broadband mode at a rate of 1 MHz and 512K data points. Each spectrum was recorded with one acquisition scan in the positive ion mode.
(§4) The D/H ratios were calculated using Formula 1 adapted from Xie et al. (Xie et al., Analytical Chemistry (2004) 76, (17), 5186-5197). […]

[4] = system: B. longum bv. longum DJO10A; experiment: as above; assay type: cell-based, Bifidobacterium longum bv. longum; settings: 45 hrs
Excerpt: as §2, §3, §4

[5] = media supplemented with 2.0% (w/v) HMO

| Structure (SMILES) | Sialidase [1] [nmol/min/mg protein] | Sialidase ([2]; cells grown with 1% (w/v) of the substance as sole carbon source) [nmol/min/mg protein] | higher sialidase activity of B. longum bv. infantis compared to B. breve ([2]; grown on lactose) [fold] | higher sialidase activity of B. longum bv. infantis compared to B. longum ([2]; grown on lactose) [fold] | Sialidase [3] [nmol/min/mg protein] | consumption of the overall detectable HMO pool represented by LNT metabolism (B. breve ATCC 15700; 2.0% (w/v) HMO) [%] | consumption of the HMO species (B. breve ATCC 15700; [5]) [%] | consumption of the overall detectable HMO pool represented by LNT metabolism ([4]; 2.0% (w/v) HMO) [%] | consumption of the HMO species [4, 5] [%] |
| --- | --- | --- | --- | --- | --- | --- | --- | --- | --- |
| OC[C@H]1O[C@@H](O[C@H]2[C@H](O)[C@@H](O)C(O)O[C@@H]2CO)[C@H](O)[C@@H](O)[C@H]1O (stereo partly drawn) [lactose] | 0.32 ± 0.03 | 10.8 ± 1.0 | 33.7 | 16.6 | 0.65 ± 0.03 |  |  |  |  |
| CC(=O)N[C@H]1[C@H](O[C@H]2[C@@H](O)[C@@H](CO)O[C@@H](O[C@H]3[C@H](O)[C@@H](O)C(O)O[C@@H]3CO)[C@@H]2O)O[C@H](CO)[C@@H](O)[C@@H]1O[C@@H]1O[C@H](CO)[C@H](O)[C@H](O)[C@H]1O (stereo partly drawn) [lacto-N-tetraose] |  |  |  |  |  | 5.1 | 24.4 | 7.3 | 35.2 |
